9 compounds from patent US20140350081A1, “INSECT G-COUPLED RECEPTORS USEFUL AS TARGETS FOR INSECTICIDES AND COMPOUNDS AND REAGENTS IDENTIFIED USING THE SAME” (priority 2011, published 2014) can be followed below.

The target in data set [1] is T1, AaDOP2 (Aedes aegypti, UniProt H6D5H2). Nature of the data set: AaDOP2 agonist screen against the LOPAC1280 library. Type of data set: cell-based. To be noted: 10 μM compound; percent of response to 1 μM dihydrexidine.
Data set [2] deals with AaDOP1 (Aedes aegypti, UniProt H6D5H1). Nature of the data set: CRELuc reporter dose-response in HEK293 cells stably expressing AaDOP1. Type of data set: cell-based. The note with it: for EC50: HEK293 cells stably expressing CRELuc reporter and AaDOP1.
For data set [3], the target named is T1, AaDOP2. Nature of the data set: CRELuc reporter dose-response in HEK293 cells stably expressing AaDOP2. The data set is classed as cell-based. The note with it: for behaviour at the AaDOP2 receptor in follow up CRCs: HEK 293-CRELuc cells, FIG. 21A.
Data set [4] deals with T2, Isdop2 (Ixodes scapularis, UniProt A0ACM8DGL0). Nature of the data set: CRE-Luc reporter assay, HEK cells stably expressing Isdop2. Type of data set: cell-based. In general terms: Reporter assays use an easily measured gene product as a stand-in for the process of interest.
The target of data set [5] is T2, Isdop2. Put plainly: cAMP accumulation in HEK 293 cells transiently expressing Isdop2. The data set is classed as cell-based. To be noted: for effect on dopamine-stimulated cAMP, Isdop2: 10 μM antagonist with 1 μM dopamine; for Stimulatory response (fold-over-basal) Isdop2: 10 μM biogenic amine, 300 nM propranolol, cAMP accumulation, mean±standard error; for increase in cAMP, Isdop2: 10 μM agonist, transient expression. In general terms: Changes in cAMP serve as a functional read-out for many G protein-coupled receptors.

In data set [6] the target is T3, Isdop1 (Ixodes scapularis, UniProt A0ACM8FJJ0). Put plainly: cAMP accumulation in HEK 293 cells transiently expressing Isdop1. The data set is classed as cell-based. The note with it: for effect on dopamine-stimulated cAMP, Isdop1: 10 μM antagonist with 1 μM dopamine; for Stimulatory response (fold-over-basal) Isdop1: 10 μM biogenic amine, 300 nM propranolol, cAMP accumulation, mean±standard error; for intracellular cAMP compared to basal, Isdop1: 10 μM agonist, transient expression.

In data set [7] the target is T1, AaDOP2. Put plainly: HTRF cAMP accumulation concentration response assay (Cisbio Dynamic 2). The data set is classed as cell-based. To be noted: AaDOP2 expressing cells in the presence of dopamine; No Inhibition = <10% inhibition at 3 μM test compound; read-out: IC50 ± S.E.M. (nM), HTRF cAMP assay.
Data set [8] deals with T3, Isdop1. Nature of the data set: CRE-Luc reporter assay, HEK cells stably expressing Isdop1. The data set is classed as cell-based.
Data set [9] deals with T3, Isdop1. Nature of the data set: cAMP accumulation confirmation assay, cells stably expressing Isdop1. The data set is classed as cell-based.
The target of data set [10] is T2, Isdop2. Nature of the data set: cAMP accumulation confirmation assay, cells stably expressing Isdop2. The data set is classed as cell-based.
The target in data set [11] is T2, Isdop2. Nature of the data set: cell-based.
The target of data set [12] is T1, AaDOP2. Put plainly: LOPAC1280 antagonist screen in HEK-CRELuc-Aadop2 cells. Type of data set: cell-based. The note with it: 10 μM compound, 300 nM dopamine, quadruplicate.
Data set [13] has as its system Ae. aegypti L3 larvae. Nature of the data set: whole plant or invertebrate. To be noted: Aedes aegypti.
Data set [14] has as its system Ae. aegypti L3 larvae. Put plainly: Ae. aegypti L3 concentration response and time course assays. The data set is classed as in vivo, Aedes aegypti. As for the experimental part: Briefly, chemistries were diluted to appropriate concentration in water and added to the wells of 24-well plates containing 5 L3 stage Ae. aegypti larvae to achieve a final concentration of 400, 200, 100, 50 and 25 μM in 1 ml sterile RO water. Chemistries were tested in quadruplicate at each concentration. […] Results reported here represent a minimum of three independent CRC experiments (i.e., n=3).

Data set [15] deals with adult male Blatella germanica. Put plainly: Cockroach assay of Table 16 (title contact assay, text feeding assay). The note with it: 200 mM compound. The data set is classed as in vivo. An excerpt: (§1) A series of whole organism bioassays was developed to further evaluate the toxicity of chemistries to a range of agricultural, veterinary and public health pests and non-target insects (Tables 12 and 13). These assays are designed to rapidly explore the biological activity spectrum of chemistries as well as to facilitate initial investigations of the mode of action of insecticidal compounds. Briefly, assays were developed for the German cockroach (Blatella germanica, urban pest), termite (Reticulitermes flavipes; urban pest), lone star tick (Amblyomma americana; veterinary and public health pest), soybean aphid (Aphis glycines, agricultural pest) and honeybee (Apis mellifera; beneficial, non-target insect). The assays were designed to test the toxicity and speed of kill of multiple chemistries on contact. Each of these assays was performed as a single point dose experiment in triplicate using either topical application of compound to the ventral thorax ([…]; 50-80 μg effective dose depending on compound) as is the case for our cockroach and honeybee assays, or 10 second immersion in a solution of the compound diluted in water or DMSO:EtOH to a final concentration of 100 μM. The assays were conducted in 24-well plate format with mortality assessment following incubation at 22° C. as described above. Commercial insecticides were incorporated in these assays to provide a positive control and permit initial comparative analyses. Lead chemistries identified in our in vivo screen have been evaluated in the cockroach and termite assays.

The subject of data set [16] is Ae. aegypti L3 larvae. The note with it: 400 μM, three independent experiments.
In data set [17] the test system is adult male Blatella germanica. Put plainly: Cockroach contact assay (topical application). Type of data set: in vivo. To be noted: 200 mM compound.
Source text: as §1

[18] abbreviates: 10 μM antagonist, 1 μM dopamine.
Where [19] appears, read: 10 μM antagonist with 1 μM dopamine, relative to dopamine alone.
The mark [20] stands for this setting: read-out: % Inhibition (of response to dopamine), Isdop2 screen.
[21] abbreviates: 48 h, read-out: Toxicity to Aedes aegypti larvae (mortality) 48 hours, 400 μM, L3 larvae, three independent experiments.
The mark [22] stands for this setting: 72 h, read-out: Toxicity to Aedes aegypti larvae (mortality) 72 hours, 400 μM, L3 larvae, three independent experiments.
[23] abbreviates: HEK293 cells stably expressing CRELuc reporter and AaDOP2, ≧10 μM = lacks intrinsic activity, read-out: EC50 values AaDOP2.

Like-named read-outs stand apart in the source and are kept apart here.

T2 sequence (A0ACM8DGL0 entry or part of it): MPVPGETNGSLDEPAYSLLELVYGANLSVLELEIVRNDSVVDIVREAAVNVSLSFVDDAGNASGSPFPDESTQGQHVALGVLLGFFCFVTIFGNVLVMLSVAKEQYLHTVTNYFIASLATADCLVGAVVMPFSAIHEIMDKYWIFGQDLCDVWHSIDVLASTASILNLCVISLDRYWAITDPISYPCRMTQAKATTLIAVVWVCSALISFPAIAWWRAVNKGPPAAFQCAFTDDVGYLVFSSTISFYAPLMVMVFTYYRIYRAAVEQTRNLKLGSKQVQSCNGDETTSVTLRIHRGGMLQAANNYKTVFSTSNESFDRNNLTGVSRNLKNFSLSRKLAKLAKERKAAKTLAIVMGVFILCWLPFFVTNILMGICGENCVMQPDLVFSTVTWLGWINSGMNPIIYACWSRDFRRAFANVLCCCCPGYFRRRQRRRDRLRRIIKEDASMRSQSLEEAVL
T1 sequence (H6D5H2 entry or part of it): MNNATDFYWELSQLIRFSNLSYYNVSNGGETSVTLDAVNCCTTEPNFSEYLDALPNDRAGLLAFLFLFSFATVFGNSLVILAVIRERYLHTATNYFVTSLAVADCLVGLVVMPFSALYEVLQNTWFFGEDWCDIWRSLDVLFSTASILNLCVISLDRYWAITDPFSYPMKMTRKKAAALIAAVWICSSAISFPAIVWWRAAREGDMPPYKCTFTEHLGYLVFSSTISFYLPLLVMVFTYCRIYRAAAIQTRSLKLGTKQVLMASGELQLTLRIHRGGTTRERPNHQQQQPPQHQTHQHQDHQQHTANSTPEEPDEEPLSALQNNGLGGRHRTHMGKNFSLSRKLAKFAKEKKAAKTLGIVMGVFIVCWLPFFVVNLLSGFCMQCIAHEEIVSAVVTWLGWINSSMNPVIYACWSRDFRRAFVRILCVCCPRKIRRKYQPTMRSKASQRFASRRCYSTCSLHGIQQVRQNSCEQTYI
Sequence of AaDOP1 (H6D5H1 entry or part of it): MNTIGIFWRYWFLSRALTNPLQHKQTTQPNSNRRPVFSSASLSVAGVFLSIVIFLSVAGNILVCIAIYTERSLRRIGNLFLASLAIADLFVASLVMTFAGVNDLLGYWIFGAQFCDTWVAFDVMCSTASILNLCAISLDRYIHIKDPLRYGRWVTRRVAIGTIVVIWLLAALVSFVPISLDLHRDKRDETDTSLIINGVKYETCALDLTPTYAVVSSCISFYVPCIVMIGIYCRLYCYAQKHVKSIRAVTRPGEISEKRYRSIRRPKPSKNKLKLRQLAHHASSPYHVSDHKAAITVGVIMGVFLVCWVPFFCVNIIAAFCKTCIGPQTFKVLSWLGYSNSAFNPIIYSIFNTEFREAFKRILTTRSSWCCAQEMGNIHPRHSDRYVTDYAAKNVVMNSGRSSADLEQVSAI

Usually EC50 stands for the concentration at which the effect is half-maximal. Turning to `Oc1cc2c(cc1O)[C@H]1c3ccccc3CN[C@@H]1CC2` (racemic) [Dihydrexidine], the “% of DHX” value in [1] is recorded as 116%. In addition, the EC50 was determined as 6.9 ± 1.5 nM in data set [2]; 290 ± 54 nM in data set [3] (HEK293 cells stably expressing CRELuc reporter and AaDOP2, read-out: EC50 values AaDOP2).
As a reminder, the IC50 is the concentration that gives 50% inhibition. By mortality is commonly meant the percentage killed. For the compound `CN1CCc2cc(Cl)c(O)cc2C(c2ccccc2)C1` (centres unmarked) [SCH23390, 8-chloro-3-methyl-5-phenyl-1,2,4,5-tetrahydro-3-benzazepin-7-ol], the “inhibition of dopamine-mediated stimulation of AaDOP1” value in [2] (setting [18]) is reported as “robustly inhibited”. The “inhibition of luciferase activity Isdop2” value in data set [4] (setting [19]) was found to be 69%. The “effect on dopamine-stimulated cAMP, Isdop2” value in [5] is “antagonistic effects”. In data set [6], the “effect on dopamine-stimulated cAMP, Isdop1” value was “significant reduction in levels of intracellular cAMP”. For the same compound, the “inhibition of dopamine-mediated stimulation of AaDOP2” value in data set [3] (setting [18]) is listed as “robustly inhibited”. For the same compound, the IC50 in data set [7] turned out to be 1300 nM; in [9], 57 nM; in data set [10], 120 nM. The “inhibition of luciferase activity Isdop1” value in data set [8] (setting [19]) worked out at 74%. In data set [8] (antagonist alone, CRE-Luc), the “effect on constitutive activity of Isdop1” value is recorded as “inhibition of the constitutive activity of Isdop1 was observed”. Also, the inhibition at 10 µM in data set [11] (setting [20]) was found to be 77%; in [11] (read-out: average inhibitory effect of antagonist control across all sixteen plates), 86 ± 6%. For the same compound, the “% of the SCH23390 effect” value in data set [12] is recorded as 83%. In addition, the mortality at 400 µM in [13] (24 h, read-out: Toxicity to Aedes aegypti larvae (mortality) 24 hours, 400 μM, L3 larvae, three independent experiments) was 3%; in [13] (setting [21]), 23%; in data set [13] (setting [22]), 47%.
With `NCC(O)c1ccc(O)cc1` (racemic) [Octopamine], the EC50 in data set [2] (≧10 μM = lacks intrinsic activity) and in data set [3] was no less than 10000 nM in each case. Moreover, the “Stimulatory response (fold-over-basal) Isdop2” value in [5] came to 1.20 ± 0.24 fold-over-basal. Further, the “Stimulatory response (fold-over-basal) Isdop1” value in data set [6] stood at 1.01 ± 0.07 fold-over-basal.
`CC(C)(C)[C@]1(O)CCN2CC3c4ccccc4CCc4cccc(c43)[C@@H]2C1` (single isomer, unassigned; (+)) [(+)-Butaclamol, 3-(1,1-dimethylethyl)-2,3,4,4a,8,9,13b,14-octahydro-1H-benzo[6,7]cyclohepta[1,2,3-de]pyrido[2,1-a]isoquinolin-3-ol]: in data set [5], the “effect on dopamine-stimulated cAMP, Isdop2” value was “antagonistic effects”. In addition, the “effect on dopamine-stimulated cAMP, Isdop1” value in data set [6] is listed as “did not cause a similar response”. In addition, the IC50 in [9] came out at 3500 nM; in [10], 320 nM.
Usually LC50 stands for the concentration lethal to half of the exposed cells or organisms. As for `CN(C)CCCN1c2ccccc2Sc2ccc(Cl)cc21` [Chlorpromazine], the “LT50” value in [14] (400 μM, L3 larval time course assay) came to 178 min. This compound also gave an LC50 in data set [14] (Aedes aegypti) of 92000 nM. Besides, the “% Mortality 24 hrs” value in [15] is recorded as 7%; in data set [17], 3%. Besides, the “% Mortality 48 hrs” value in data set [15] is recorded as 17%; in [17], 10%. The “% Mortality 72 hrs” value in data set [15] was 17%; in data set [17], 10%. For the same compound, the entries for the “% Mortality 120 hrs” value in data set [15] and in [17] were 20% and 14%, respectively. Further, the IC50 in data set [7] came out at 17 nM. For the same compound, in data set [16], the “Toxicity to Aedes aegypti larvae (mortality) 24 hours” value worked out at 100%. Besides, in data set [17], the “% Mortality 240 hrs” value amounted to 17%. The inhibition at 10 µM in data set [11] (setting [20]) amounted to 92%. In addition, the mortality at 400 µM was greater than 70% in [13] (0.5 h, read-out: mortality of the mosquito population within 30 minutes, 400 μM, L3 larvae); 70% in data set [13] (0.5 h, read-out: percent mortality 0.5 hr, 400 uM, L3 larvae, value for this scoring time); 0% in data set [13] (1 h, read-out: percent mortality 1 hr, 400 uM, L3 larvae, per scoring time); 10% in data set [13] (2 h, read-out: percent mortality 2 hr, 400 uM, L3 larvae, per scoring time); 0% in [13] (3 h, read-out: percent mortality 3 hr, 400 uM, L3 larvae, per scoring time); 0% in data set [13] (4 h, read-out: percent mortality 4 hr, 400 uM, L3 larvae, per scoring time). For the same compound, the mortality at 400 µM was 10% in data set [13] (24 h, read-out: percent mortality 24 hr, 400 uM, L3 larvae, per scoring time); 100% in data set [13] (setting [21]); 0% in [13] (48 h, read-out: percent mortality 48 hr, 400 uM, L3 larvae, per scoring time); 100% in data set [13] (72 h, read-out: Cumulative % Mortality (72 hrs), 400 uM, L3 larvae); 100% in data set [13] (setting [22]); 0% in data set [13] (72 h, read-out: percent mortality 72 hr, 400 uM, L3 larvae, per scoring time).
For the compound `Oc1cc2c(cc1O)C(c1ccccc1)CNCC2` (centres unmarked) [SKF 38393], in [1], the “% of DHX” value is reported as less than 10%. In addition, the EC50 in data set [2] was 310 ± 46 nM; in [3] (setting [23]), no less than 10000 nM. In data set [5], the “increase in cAMP, Isdop2” value is given as “ca. two-fold-over-basal”. In data set [6], the “intracellular cAMP compared to basal, Isdop1” value is given as “modest, yet significant increases”.
Regarding `Oc1cc2c(c(Cl)c1O)CCNCC2c1ccccc1` (centres unmarked) [SKF 81297], in [1], the “% of DHX” value is reported as 38%. The EC50 in [2] was 24 ± 7 nM; in data set [3] (setting [23]), no less than 10000 nM. The “increase in cAMP, Isdop2” value in data set [5] was “ca. two-fold-over-basal”. Also, the “intracellular cAMP compared to basal, Isdop1” value in data set [6] is recorded as “modest, yet significant increases”.
Consider `NC[C@H](O)c1ccc(O)c(O)c1` [Norepinephrine], for which the “% of DHX” value in [1] is 86%. Besides, the EC50 worked out at 760 ± 180 nM in [2], 4300 ± 1300 nM in data set [4] and 2200 ± 300 nM in data set [8]. In addition, the “Stimulatory response (fold-over-basal) Isdop2” value in [5] is reported as 2.43 ± 0.65 fold-over-basal. Moreover, the “Stimulatory response (fold-over-basal) Isdop1” value in data set [6] was 1.46 ± 0.10 fold-over-basal. In data set [3], the “behaviour at the AaDOP2 receptor in follow up CRCs” value is “partial agonists”.
For `CNC[C@H](O)c1ccc(O)c(O)c1` [Epinephrine], the “% of DHX” value in data set [1] is reported as 90%. For the same compound, the concentration for a half-maximal effect (EC50) in data set [4] stood at 3500 ± 1000 nM; in [8] it was 1900 ± 300 nM. Besides, in data set [3], the “behaviour at the AaDOP2 receptor in follow up CRCs” value is recorded as “partial agonists”.
